One series concerns the target T1, human TGR5 receptor (Homo sapiens, UniProt Q8TDU6).
T1 construct: host or cells: CHO-K1 (hTGR5-CHO)
T1 sequence (Q8TDU6 1-330): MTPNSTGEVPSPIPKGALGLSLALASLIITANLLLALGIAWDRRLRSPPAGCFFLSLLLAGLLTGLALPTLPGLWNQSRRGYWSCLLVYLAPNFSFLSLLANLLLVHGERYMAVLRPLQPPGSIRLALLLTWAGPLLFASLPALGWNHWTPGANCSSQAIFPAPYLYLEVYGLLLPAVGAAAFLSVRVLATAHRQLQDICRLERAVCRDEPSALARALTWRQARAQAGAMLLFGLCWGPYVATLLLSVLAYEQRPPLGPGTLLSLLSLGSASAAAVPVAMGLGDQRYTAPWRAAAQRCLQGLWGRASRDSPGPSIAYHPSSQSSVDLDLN
Description: Human TGR5 cAMP production assay (hTGR5-CHO cells, DiscoveRx cAMP XS+ kit). The note with it: luminescent cAMP assay, read-out: Human TGR5 Lum. cAMP Activity (EC50). It counts as cell-based. In outline: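 EC50 values come from luminescent enzyme-complementation cAMP detection, read after overnight incubation. Beforehand, hTGR5-expressing CHO-K1 cells with IBMX and anti-cAMP antibody were exposed 1 h at room temperature to serially diluted (half-log) compounds.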
(In general: Cyclic AMP is a second messenger, typically raised through Gs and lowered through Gi signalling.)

Series [1] has as its target T2, mouse TGR5 receptor (Mus musculus, UniProt Q80SS6).
T2 construct: host or cells: HEK293-EBNA (293 c18, ATCC CRL10852)
T2 sequence (Q80SS6 1-329): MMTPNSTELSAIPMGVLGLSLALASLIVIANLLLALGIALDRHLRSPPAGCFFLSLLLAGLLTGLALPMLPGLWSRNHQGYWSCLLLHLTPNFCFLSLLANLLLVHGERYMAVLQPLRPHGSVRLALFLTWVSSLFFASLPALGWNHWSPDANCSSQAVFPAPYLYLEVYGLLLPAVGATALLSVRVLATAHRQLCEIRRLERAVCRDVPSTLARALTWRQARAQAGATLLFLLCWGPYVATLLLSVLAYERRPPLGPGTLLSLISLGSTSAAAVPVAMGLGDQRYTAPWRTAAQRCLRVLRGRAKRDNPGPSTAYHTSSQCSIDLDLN
Briefly: Mouse TGR5 luminescent cAMP production assay (HEK293-EBNA cells, DiscoveRx cAMP XS+ kit). It counts as cell-based. The note with it: HEK293-EBNA cells overexpressing mouse TGR5, luminescent cAMP assay; read-out: Mouse TGR5 Lum. cAMP Activity (EC50). In outline:
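HEK293-EBNA cells stably expressing mouse TGR5, resuspended in serum-free DMEM with 500 μM IBMX, were premixed 20 min with cAMP antibody, then exposed to half-log compound dilutions for 1 h at room temperature. cAMP was read by luminescent enzyme-fragment complementation (cAMP XS+) after overnight incubation; EC50 derived.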

The next series deals with Mouse STC-1 cells. Description: STC-1 GLP-1 assay (GLP-1 secretion). It counts as cell-based. The note with it: Mouse STC-1 cells, GLP-1 secretion, 2 h; read-out: Mouse STC-1 HTRF GLP-1 Activity (EC50). The method, then: Compounds of the present invention were evaluated for their ability to induce GLP-1 production in mouse intestinal neuroendocrine tumor cells.
Mouse STC-1 cells were cultured and maintained in high glucose DMEM (Sigma #5796) supplemented with 15% horse serum, 5% Fetal Bovine Serum (FBS), 1%° penicillin/streptomycin, and 2 mM L-alanine L-glutamine (GlutaMax). Two days prior to analysis of GLP-1 secretion cells were harvested using Accutase (Sigma), spun down then resuspended in high glucose DMEM media containing 2 mM L-alanine L-glutamine (GlutaMax), 10% charcoal-dextran stripped FBS, and 50 μg/mL Gentamicin, at a density of 100,000° cells/mL. 100 μL of cell suspension was added to each well of a 96-well Poly-D-Lysine coated culture plate (Sigma; cat #2382493) and was incubated at 37° C. with 5% CO2.
Compounds were initially diluted in 100% DMSO (12-point serial dilution by half logs) in a 96-well plate and then were further diluted 1:500 in Hanks' Balanced Salt Solution (HBSS) containing protease inhibitor cocktail, DPP-IV inhibitor, and 0.1% fatty acid free bovine serum albumin. On the day of the experiment cells were washed once with HBSS. After wash, 100 μL of test compound was added to each well. The plate was incubated at 37° C. with 5% CO2 for 2° h. Supernatants were collected and GLP-1 secretion was measured using the Cisbio™ Active GLP-1 HTRF Assay Kit (CisBio). Briefly, Anti-GLP-1-d2 conjugate and Anti-GLP-1 Terbium Cryptate conjugate stock solutions were prepared as per kit instructions. The two solutions were pre-mixed and 10 μL were transferred to a 384-well low volume plate (Greiner; cat #784075). 10 μL of collected supernatants were added to wells already containing the conjugate solution. The plate was covered and incubated at room temperature overnight. The plate was read on an Envision™ plate reader (PerkinElmer).
In Table 53, EC50 values were obtained from the STC-1 GLP-1 production assay for compounds of the present invention are summarized.

Series [2] deals with T2, mouse TGR5 receptor. Description: Mouse TGR5 HTRF cAMP production assay (HEK293-EBNA cells, Cisbio cAMP HiRange kit). It counts as cell-based. The note with it: HEK293-EBNA cells overexpressing mouse TGR5, HTRF cAMP assay. In outline: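 cAMP accumulation was read by competitive HTRF after 1 h room-temperature compound treatment, with a further 1 h conjugate incubation. Cells were mouse TGR5-overexpressing HEK293-EBNA in serum-free DMEM plus 500 μM IBMX. Compounds ran as 12-point half-log series in duplicate, and EC50 values were reported.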

Series [3] in a line: Pharmacokinetic profile in mice after oral gavage. The format is in vivo, mouse. The following applies: mouse; fasted male Hilltop mice, 10 mg/kg oral gavage, plasma; read-out: Cmax. In outline:
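Plasma exposure (Cmax, AUC) by non-compartmental analysis of LC-MS/MS data, orbital blood taken at 0, 0.25, 0.5, 1, 2 and 4 h, each value averaging three mice. Dosing: 10 mg/kg oral gavage to overnight-fasted male Hilltop mice (8 weeks), vehicle PEG400/CMC/Tween-80.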

Take `O=C(NCCc1ccc(C(F)(F)F)cc1)[C@@H]1CCCN1c1cc(N2CCC(CO)CC2)nc(C(F)(F)F)n1` [Compound 2, (S)-1-(6-(4-(hydroxymethyl)piperidin-1-yl)-2-(trifluoromethyl)pyrimidin-4-yl)-N-(4-(trifluoromethyl)-phenethyl)pyrrolidine-2-carboxamide]: the EC50 on human TGR5 receptor was under 100 nM; on mouse TGR5 receptor [1], under 100 nM; with Mouse STC-1 cells it was 100 to 999 nM.

For the compound `N#Cc1ccc(CCNC(=O)[C@@H]2CCCN2c2cc(OC3CCOCC3)nc(C(F)(F)F)n2)cc1` [Compound 41, (S)-N-(4-cyanophenethyl)-1-(6-((tetrahydro-2H-pyran-4-yl)oxy)-2-(trifluoromethyl)pyrimidin-4-yl)pyrrolidine-2-carboxamide], the EC50 on human TGR5 receptor was under 100 nM; on mouse TGR5 receptor [1], under 100 nM; in the series with Mouse STC-1 cells it was 100 to 999 nM.

Take `O=C(NCCc1ccc(C(F)(F)F)cc1)[C@@H]1CCCN1c1cc(OC2CCOCC2)nc(C(F)(F)F)n1` [Compound 40, (S)-1-(6-((tetrahydro-2H-pyran-4-yl)oxy)-2-(trifluoromethyl)pyrimidin-4-yl)-N-(4-(trifluoromethyl)phenethyl)pyrrolidine-2-carboxamide]: the EC50 on human TGR5 receptor was under 100 nM; at mouse TGR5 receptor [1] it was under 100 nM; with Mouse STC-1 cells, 100 to 999 nM.

Consider `N#Cc1ccc(CCNC(=O)[C@@H]2CCCN2c2cc(N3CCC(CN)CC3)nc(C(F)(F)F)n2)cc1` [Compound 47, (S)-1-(6-(4-(aminomethyl)piperidin-1-yl)-2-(trifluoromethyl)pyrimidin-4-yl)-N-(4-cyanophenethyl)pyrrolidine-2-carboxamide], for which the values for the EC50 at human TGR5 receptor, at mouse TGR5 receptor [1] and in the series with Mouse STC-1 cells were under 100 nM, 100 to 999 nM and 1000 to 30000 nM, respectively.

Regarding `Cc1ccc(-c2cc(N3CCC[C@H]3C(=O)NCCc3ccc(C#N)cc3)nc(C(F)(F)F)n2)s1` [Compound 170, (S)-N-(4-cyanophenethyl)-1-(6-(5-methylthiophen-2-yl)-2-(trifluoromethyl)pyrimidin-4-yl)pyrrolidine-2-carboxamide], the EC50 on human TGR5 receptor, at mouse TGR5 receptor [2] and on mouse TGR5 receptor [1] was 100 to 999 nM each time.

For `O=C(NCCc1ccc(C(F)(F)F)cc1)[C@@H]1CCCN(c2cc(N3CCC(CO)CC3)nc(C(F)(F)F)n2)C1` [Compound 329, (R)-1-(6-(4-(hydroxymethyl)piperidin-1-yl)-2-(trifluoromethyl)pyrimidin-4-yl)-N-(4-(trifluoromethyl)-phenethyl)piperidine-3-carboxamide], the EC50 on human TGR5 receptor is under 100 nM; at mouse TGR5 receptor [1], under 100 nM; in the series with Mouse STC-1 cells it was 100 to 999 nM.

As to `N#Cc1ccc(CCNC(=O)[C@@H]2CCCN(c3cc(N4CCC(CCO)CC4)nc(C(F)(F)F)n3)C2)cc1` [Compound 309, (R)-N-(4-cyanophenethyl)-1-(6-(4-(2-hydroxyethyl)piperidin-1-yl)-2-(trifluoromethyl)pyrimidin-4-yl)piperidine-3-carboxamide], the EC50 at human TGR5 receptor is under 100 nM; on mouse TGR5 receptor [1] it was under 100 nM; in the series with Mouse STC-1 cells, 100 to 999 nM.

For `CN(C)CC1CCN(c2cc(N3CCC[C@H]3C(=O)NCCc3ccc(C#N)cc3)nc(C(F)(F)F)n2)CC1` [Compound 19], the EC50 at human TGR5 receptor is 100 to 999 nM; at mouse TGR5 receptor [1], under 100 nM; in the series with Mouse STC-1 cells it was 1000 to 30000 nM.

For the compound `N#Cc1ccc(CCNC(=O)[C@@H]2CCCN2c2cc(-c3cc4ccccc4s3)nc(C(F)(F)F)n2)cc1` [Compound 173, (S)-1-(6-(benzo[b]thiophen-2-yl)-2-(trifluoromethyl)pyrimidin-4-yl)-N-(4-cyanophenethyl)pyrrolidine-2-carboxamide], the EC50 at human TGR5 receptor, at mouse TGR5 receptor [2] and on mouse TGR5 receptor [1] was 100 to 999 nM in each case.

Consider `Cc1csc(-c2cc(N3CCC[C@H]3C(=O)NCCc3ccc(C#N)cc3)nc(C(F)(F)F)n2)c1` [Compound 171, (S)-N-(4-cyanophenethyl)-1-(6-(4-methylthiophen-2-yl)-2-(trifluoromethyl)pyrimidin-4-yl)pyrrolidine-2-carboxamide], for which the EC50 on human TGR5 receptor is 100 to 999 nM; at mouse TGR5 receptor [2] it was under 100 nM; at mouse TGR5 receptor [1], 100 to 999 nM.

As to `N#Cc1ccc(CCNC(=O)[C@@H]2C[C@@H](O)CN2c2cc(N3CCC(CCO)CC3)nc(C(F)(F)F)n2)cc1` [Compound 210, (2S,4R)—N-(4-cyanophenethyl)-4-hydroxy-1-(6-(4-(2-hydroxyethyl)piperidin-1-yl)-2-(trifluoromethyl)pyrimidin-4-yl)pyrrolidine-2-carboxamide], the EC50 at human TGR5 receptor and at mouse TGR5 receptor [1] was 100 to 999 nM in each case. In addition, the Cmax in series [3] came out at 54 ng/mL.

As to `CS(=O)(=O)c1ccc(-c2cc(N3CCC[C@H]3C(=O)NCCc3ccc(C#N)cc3)nc(C(F)(F)F)n2)cc1` [Compound 152, (S)-N-(4-cyanophenethyl)-1-(6-(4-(methylsulfonyl)phenyl)-2-(trifluoromethyl)pyrimidin-4-yl)pyrrolidine-2-carboxamide], the EC50 is 100 to 999 nM at human TGR5 receptor, under 100 nM on mouse TGR5 receptor [1] and 100 to 999 nM with Mouse STC-1 cells.

Turning to `CNC(=O)c1cc(-c2cc(N3CCC[C@H]3C(=O)NCCc3ccc(C#N)cc3)nc(C(F)(F)F)n2)cs1` [Compound 179, (S)—N-(4-cyanophenethyl)-1-(6-(5-(methylcarbamoyl)thiophen-3-yl)-2-(trifluoromethyl)pyrimidin-4-yl)pyrrolidine-2-carboxamide], the EC50 on human TGR5 receptor and on mouse TGR5 receptor [1] was 1000 to 30000 nM in each case.

`N#Cc1ccc(CCNC(=O)[C@@H]2CCCN2c2cc(-c3ccoc3)nc(C(F)(F)F)n2)cc1` [Compound 164, (S)-N-(4-cyanophenethyl)-1-(6-(furan-3-yl)-2-(trifluoromethyl)pyrimidin-4-yl)pyrrolidine-2-carboxamide]: the EC50 on human TGR5 receptor lay within 1000 to 30000 nM; at mouse TGR5 receptor [1], 100 to 999 nM.

With `N#Cc1ccc(CCNC(=O)[C@@H]2CCCN2c2cc(-c3cccnc3)nc(C(F)(F)F)n2)cc1` [Compound 142, (S)-N-(4-cyanophenethyl)-1-(6-(pyridin-3-yl)-2-(trifluoromethyl)pyrimidin-4-yl)pyrrolidine-2-carboxamide], the EC50 at human TGR5 receptor was in the range of 1000 to 30000 nM; on mouse TGR5 receptor [1] it was 100 to 999 nM.

Turning to `N#Cc1ccc(CCNC(=O)[C@@H]2CCCN2c2cc(-c3cccs3)nc(C(F)(F)F)n2)cc1` [Compound 165, (S)-N-(4-cyanophenthyl)-1-(6-(thiophene-2-yl)-2-(trifluoromethyl)pyrimidin-4-yl)pyrrolidine-2-carboxamide], the EC50 on human TGR5 receptor and at mouse TGR5 receptor [1] was 100 to 999 nM throughout.

A word on the EC50: it is the concentration giving half of the maximal effect. For orientation: Cmax means the peak of the concentration-time curve.

(Values after patent US10654834B2 (Venenum Biodesign, LLC, priority 2016, dated 2020).)
